According to the OligoGym collection:
HELM strings list units from the 5' end as sugar, base in round brackets, then linkage (d deoxyribose, r ribose, m 2'-O-methyl, p phosphodiester). Strings are as the collection lists them; they lack the last nucleoside at the 3' end of the tested compound. [moe] = 2'-O-(2-methoxyethyl) (MOE); [sp] = phosphorothioate linkage; [m5C] = 5-methylcytosine

Target: UBE3A-ATS
Experiment: mouse, dose not given
Conditions: ASO

Substance: RNA1{[moe](T)[sp].[moe](G)p.[moe]([m5C])p.[moe](T)p.[moe]([m5C])p.d(A)[sp].d(G)[sp].d(T)[sp].d(T)[sp].d(A)[sp].d(G)[sp].d(G)[sp].d(T)[sp].d(T)[sp].d(A)[sp].[moe](G)p.[moe](T)p.[moe](G)[sp].[moe]([m5C])}$$$$ (last 3' nucleoside missing)
- 3 h FOB score: 4.3 score 0-7

Substance: RNA1{[moe](T)[sp].[moe](G)p.[moe]([m5C])p.[moe](T)p.d(G)[sp].d(A)[sp].d(T)[sp].d([m5C])[sp].d(A)[sp].d([m5C])[sp].d(A)[sp].d(T)[sp].d(T)[sp].d(A)[sp].[moe]([m5C])p.[moe]([m5C])p.[moe]([m5C])p.[moe](A)[sp].[moe](T)}$$$$ (last 3' nucleoside missing)
- 3 h FOB score: 0 score 0-7

Substance: RNA1{[moe](T)[sp].[moe](G)p.[moe]([m5C])p.[moe](T)p.d(T)[sp].d([m5C])[sp].d(A)[sp].d([m5C])[sp].d([m5C])[sp].d(A)[sp].d(T)[sp].d(T)[sp].d(T)[sp].d(T)[sp].[moe](G)p.[moe](A)p.[moe]([m5C])p.[moe]([m5C])[sp].[moe](T)}$$$$ (last 3' nucleoside missing)
- 3 h FOB score: 0 score 0-7

Substance: RNA1{[moe](T)[sp].[moe](G)p.[moe]([m5C])p.[moe](T)p.d([m5C])[sp].d(A)[sp].d(G)[sp].d(T)[sp].d(T)[sp].d(A)[sp].d(G)[sp].d(G)[sp].d(T)[sp].d(T)[sp].[moe](A)p.[moe](G)p.[moe](T)p.[moe](G)[sp].[moe]([m5C])}$$$$ (last 3' nucleoside missing)
- 3 h FOB score: 4 score 0-7

Substance: RNA1{[moe](T)[sp].[moe](G)p.[moe]([m5C])p.[moe]([m5C])p.[moe](T)p.d(T)[sp].d(T)[sp].d([m5C])[sp].d(T)[sp].d(A)[sp].d(T)[sp].d(T)[sp].d(T)[sp].d([m5C])[sp].d(A)[sp].[moe](G)p.[moe](A)p.[moe]([m5C])[sp].[moe]([m5C])}$$$$ (last 3' nucleoside missing)
- 3 h FOB score: 2.7 score 0-7

Substance: RNA1{[moe](T)[sp].[moe](T)p.[moe](A)p.[moe](A)p.[moe]([m5C])p.d(T)[sp].d(G)[sp].d([m5C])[sp].d(T)[sp].d(T)[sp].d([m5C])[sp].d(A)[sp].d([m5C])[sp].d([m5C])[sp].d(A)[sp].[moe](T)p.[moe](T)p.[moe](T)[sp].[moe](T)}$$$$ (last 3' nucleoside missing)
- 3 h FOB score: 1 score 0-7

Substance: RNA1{[moe](T)[sp].[moe](T)p.[moe](A)p.[moe](G)p.[moe](G)p.[moe](T)p.d([m5C])[sp].d(A)[sp].d(A)[sp].d([m5C])[sp].d([m5C])[sp].d(A)[sp].d(A)[sp].d(T)[sp].d(T)[sp].d(T)[sp].[moe](G)p.[moe]([m5C])[sp].[moe](T)}$$$$ (last 3' nucleoside missing)
- 3 h FOB score: 0 score 0-7

Substance: RNA1{[moe](T)[sp].[moe](T)p.[moe](A)p.[moe](G)p.[moe](G)p.d(T)[sp].d(T)[sp].d(A)[sp].d(G)[sp].d(T)[sp].d(G)[sp].d([m5C])[sp].d(A)[sp].d([m5C])[sp].d(A)[sp].[moe](G)p.[moe](A)p.[moe](T)[sp].[moe](A)}$$$$ (last 3' nucleoside missing)
- 3 h FOB score: 6 score 0-7

Substance: RNA1{[moe](T)[sp].[moe](T)p.[moe](A)p.[moe](G)p.[moe](G)p.d(T)[sp].d([m5C])[sp].d(A)[sp].d(A)[sp].d([m5C])[sp].d([m5C])[sp].d(A)[sp].d(A)[sp].d(T)[sp].d(T)[sp].[moe](T)p.[moe](G)p.[moe]([m5C])[sp].[moe](T)}$$$$ (last 3' nucleoside missing)
- 3 h FOB score: 0 score 0-7

Substance: RNA1{[moe](T)[sp].[moe](T)p.[moe](A)p.[moe](G)p.[moe](G)p.d([m5C])[sp].d(A)[sp].d(A)[sp].d(T)[sp].d(G)[sp].d(G)[sp].d(A)[sp].d([m5C])[sp].d(T)[sp].d(T)[sp].[moe](A)p.[moe](G)p.[moe](T)[sp].[moe](A)}$$$$ (last 3' nucleoside missing)
- 3 h FOB score: 1 score 0-7

Substance: RNA1{[moe](T)[sp].[moe](T)p.[moe](A)p.[moe](G)p.[moe](T)p.d(A)[sp].d(T)[sp].d(G)[sp].d(T)[sp].d([m5C])[sp].d(G)[sp].d(A)[sp].d(G)[sp].d(A)[sp].d(A)[sp].[moe]([m5C])p.[moe](T)p.[moe]([m5C])[sp].[moe](A)}$$$$ (last 3' nucleoside missing)
- 3 h FOB score: 5.5 score 0-7

Substance: RNA1{[moe](T)[sp].[moe](T)p.[moe](A)p.[moe](G)p.[moe](T)p.d(G)[sp].d(T)[sp].d([m5C])[sp].d(A)[sp].d(T)[sp].d(A)[sp].d(T)[sp].d(G)[sp].d(T)[sp].d(A)[sp].[moe](G)p.[moe]([m5C])p.[moe](A)[sp].[moe](A)}$$$$ (last 3' nucleoside missing)
- 3 h FOB score: 1 score 0-7

Substance: RNA1{[moe](T)[sp].[moe](T)p.[moe](A)p.[moe](G)p.[moe]([m5C])p.d([m5C])[sp].d(A)[sp].d(T)[sp].d([m5C])[sp].d(A)[sp].d(T)[sp].d(T)[sp].d(T)[sp].d(T)[sp].d(A)[sp].[moe](T)p.[moe](T)p.[moe]([m5C])[sp].[moe](T)}$$$$ (last 3' nucleoside missing)
- 3 h FOB score: 0 score 0-7

Substance: RNA1{[moe](T)[sp].[moe](T)p.[moe](A)p.[moe](G)p.d(G)[sp].d(T)[sp].d([m5C])[sp].d(A)[sp].d(A)[sp].d([m5C])[sp].d([m5C])[sp].d(A)[sp].d(A)[sp].d(T)[sp].[moe](T)p.[moe](T)p.[moe](G)p.[moe]([m5C])[sp].[moe](T)}$$$$ (last 3' nucleoside missing)
- 3 h FOB score: 0 score 0-7

Substance: RNA1{[moe](T)[sp].[moe](T)p.[moe](A)p.[moe](T)p.[moe](A)p.d(G)[sp].d(G)[sp].d(G)[sp].d(T)[sp].d(G)[sp].d(G)[sp].d(T)[sp].d(T)[sp].d(G)[sp].d(G)[sp].[moe](T)p.[moe](T)p.[moe]([m5C])[sp].[moe](A)}$$$$ (last 3' nucleoside missing)
- 3 h FOB score: 7 score 0-7

Substance: RNA1{[moe](T)[sp].[moe](T)p.[moe](A)p.[moe](T)p.[moe](T)p.d(G)[sp].d(G)[sp].d(T)[sp].d([m5C])[sp].d(A)[sp].d(T)[sp].d([m5C])[sp].d(T)[sp].d([m5C])[sp].d(G)[sp].[moe](G)p.[moe](G)p.[moe](T)[sp].[moe](A)}$$$$ (last 3' nucleoside missing)
- 3 h FOB score: 4 score 0-7

Substance: RNA1{[moe](T)[sp].[moe](T)p.[moe](A)p.[moe]([m5C])p.[moe](T)p.d([m5C])[sp].d([m5C])[sp].d(T)[sp].d([m5C])[sp].d(T)[sp].d(G)[sp].d(G)[sp].d(T)[sp].d(G)[sp].d(T)[sp].[moe](G)p.[moe]([m5C])p.[moe](T)[sp].[moe](G)}$$$$ (last 3' nucleoside missing)
- 3 h FOB score: 3.5 score 0-7

Substance: RNA1{[moe](T)[sp].[moe](T)p.[moe](G)p.[moe](A)p.[moe](T)p.d([m5C])[sp].d(T)[sp].d(A)[sp].d(T)[sp].d(T)[sp].d(A)[sp].d(T)[sp].d(G)[sp].d(A)[sp].d(G)[sp].[moe](G)p.[moe](G)p.[moe]([m5C])[sp].[moe](A)}$$$$ (last 3' nucleoside missing)
- 3 h FOB score: 4.7 score 0-7

Substance: RNA1{[moe](T)[sp].[moe](T)p.[moe](G)p.[moe](G)[sp].d(T)[sp].d([m5C])[sp].d(A)[sp].d(T)[sp].d([m5C])[sp].d(T)[sp].d([m5C])[sp].d(G)[sp].[moe](G)p.[moe](G)p.[moe](T)p.[moe](A)[sp].[moe](T)}$$$$ (last 3' nucleoside missing)
- 3 h FOB score: 2.3 score 0-7

Substance: RNA1{[moe](T)[sp].[moe](T)p.[moe](G)p.[moe](G)p.[moe](T)[sp].d([m5C])[sp].d(A)[sp].d(T)[sp].d([m5C])[sp].d(T)[sp].d([m5C])[sp].d(G)[sp].d(G)[sp].[moe](G)p.[moe](T)p.[moe](A)[sp].[moe](T)}$$$$ (last 3' nucleoside missing)
- 3 h FOB score: 5 score 0-7

Substance: RNA1{[moe](T)[sp].[moe](T)p.[moe](G)p.[moe](G)p.[moe](T)p.[moe]([m5C])[sp].d(A)[sp].d(T)[sp].d([m5C])[sp].d(T)[sp].d([m5C])[sp].d(G)[sp].d(G)[sp].d(G)[sp].[moe](T)p.[moe](A)[sp].[moe](T)}$$$$ (last 3' nucleoside missing)
- 3 h FOB score: 6.7 score 0-7

Substance: RNA1{[moe](T)[sp].[moe](T)p.[moe](G)p.[moe](G)p.[moe](T)p.[moe]([m5C])p.d(A)[sp].d(T)[sp].d([m5C])[sp].d(T)[sp].d([m5C])[sp].d(G)[sp].d(G)[sp].d(G)[sp].d(T)[sp].d(A)[sp].[moe](T)p.[moe](A)[sp].[moe](T)}$$$$ (last 3' nucleoside missing)
- 3 h FOB score: 6.5 score 0-7

Substance: RNA1{[moe](T)[sp].[moe](T)p.[moe](G)p.[moe](G)p.[moe](T)p.d(A)[sp].d(T)[sp].d(T)[sp].d(G)[sp].d(A)[sp].d([m5C])[sp].d(A)[sp].d([m5C])[sp].d([m5C])[sp].d(T)[sp].[moe]([m5C])p.[moe]([m5C])p.[moe](A)[sp].[moe](A)}$$$$ (last 3' nucleoside missing)
- 3 h FOB score: 1 score 0-7

Substance: RNA1{[moe](T)[sp].[moe](T)p.[moe](G)p.[moe](G)p.[moe](T)p.d([m5C])[sp].d(A)[sp].d(T)[sp].d([m5C])[sp].d(T)[sp].d([m5C])[sp].d(G)[sp].d(G)[sp].d(G)[sp].d(T)[sp].[moe](A)p.[moe](T)p.[moe](A)[sp].[moe](T)}$$$$ (last 3' nucleoside missing)
- 3 h FOB score: 5.7 score 0-7

Substance: RNA1{[moe](T)[sp].[moe](T)p.[moe](G)p.[moe](G)p.[moe]([m5C])p.d(A)[sp].d([m5C])[sp].d(A)[sp].d([m5C])[sp].d([m5C])[sp].d(T)[sp].d(G)[sp].d(G)[sp].d(A)[sp].d(T)[sp].[moe](T)p.[moe](T)p.[moe]([m5C])[sp].[moe](A)}$$$$ (last 3' nucleoside missing)
- 3 h FOB score: 2 score 0-7

Substance: RNA1{[moe](T)[sp].[moe](T)p.[moe](G)p.[moe](G)p.[moe]([m5C])p.d(T)[sp].d(T)[sp].d(T)[sp].d(A)[sp].d(T)[sp].d(A)[sp].d([m5C])[sp].d(T)[sp].d(T)[sp].d(T)[sp].[moe](A)p.[moe]([m5C])p.[moe]([m5C])[sp].[moe]([m5C])}$$$$ (last 3' nucleoside missing)
- 3 h FOB score: 1 score 0-7

Substance: RNA1{[moe](T)[sp].[moe](T)p.[moe](G)p.[moe](G)p.d(T)[sp].d([m5C])[sp].d(A)[sp].d(T)[sp].d([m5C])[sp].d(T)[sp].d([m5C])[sp].d(G)[sp].d(G)[sp].d(G)[sp].[moe](T)p.[moe](A)p.[moe](T)p.[moe](A)[sp].[moe](T)}$$$$ (last 3' nucleoside missing)
- 3 h FOB score: 4 score 0-7
